# Measurements as given in US20230295115A1, “SUBSTITUTED ISOQUINOLINYLMETHYL AMIDES, ANALOGUES THEREOF, AND METHODS USING SAME” (priority 2020, published 2023).
# pEC50: −log10 of the molar value.
# Test system: HBV rcDNA
# Assay: HepDE19 assay with bDNA quantitation of HBV rcDNA
# Type: cell-based, hepatitis B virus (HBV)
# Conditions: HepDE19 cells, 7 day incubation, rcDNA measured by Quantigene 2.0 bDNA assay, top concentration 25 μM; read-out: DE-19bDNA EC50
# Procedure, shortened: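 HepDE19 cells were switched to tetracycline-free medium and exposed to compound (0.5% DMSO final) for 7 days at 37° C. rcDNA was then quantified by bDNA with an HBV-specific probe set. In parallel, viability was read as ATP content (CellTiter-Glo) after 4 days on replicate plates.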
row,SMILES,pEC50
1,"CC(c1c[nH]c(=O)c2cc(F)c(F)cc12)N(C)C(=O)C1Nc2ccccc2C1(C)C (stereo not shown) [Compound 115, N-(1-(6,7-Difluoro-1-oxo-1,2-dihydroisoquinolin-4-yl)ethyl)-N,3,3-trimethylindoline-2-carboxamide]",4.72
2,"CC(c1c[nH]c(=O)c2c(F)c(F)ccc12)N(C)C(=O)C1Cc2cc(F)ccc2N1 (stereo not shown) [Compound 76, N-(1-(7,8-Difluoro-1-oxo-1,2-dihydroisoquinolin-4-yl)ethyl)-5-fluoro-N-methylindoline-2-carboxamide]",5.36
3,"CC(c1c[nH]c(=O)c2cc(F)c(F)cc12)N(C)C(=O)c1ccc2c(ccn2C)c1 (single isomer, unassigned) [Compound 140, N-(1-(6,7-difluoro-1-oxo-1,2-dihydroisoquinolin-4-yl)ethyl)-N,1-dimethyl-1H-indole-5-carboxamide]",6.92
4,"CC(c1c[nH]c(=O)c2cc(F)c(F)cc12)N(C)C(=O)c1ccc(C(F)(F)F)c(F)c1 (single isomer, unassigned) [Compound 119, N-(1-(6,7-Difluoro-1-oxo-1,2-dihydroisoquinolin-4-yl)ethyl)-3-fluoro-N-methyl-4-(trifluoromethyl) benzamide]",5.40
5,"CC(c1c[nH]c(=O)c2c(F)c(F)ccc12)N(C)C(=O)c1cc2c(Cl)cccn2c1 (single isomer, unassigned) [Compound 93, 8-Chloro-N-(1-(7,8-difluoro-1-oxo-1,2-dihydroisoquinolin-4-yl)ethyl)-N-methylindolizine-2-carboxamide]",7.40
6,"CC(c1c[nH]c(=O)c2c(F)c(F)ccc12)N(C)C(=O)c1cc2c([nH]1)CCC(F)(F)C2 (single isomer, unassigned) [Compound 91, N-(1-(7,8-Difluoro-1-oxo-1,2-dihydroisoquinolin-4-yl)ethyl)-5,5-difluoro-N-methyl-4,5,6,7-tetrahydro-1H-indole-2-carboxamide]",5.14
7,"COc1ncc(C(C)N(C)C(=O)c2ccc(C(F)(F)F)c(F)c2)c2cc(F)c(F)cc12 (single isomer, unassigned) [Compound 176, N-(1-(6,7-Difluoro-1-methoxyisoquinolin-4-yl)ethyl)-3-fluoro-N-methyl-4-(trifluoromethyl)benzamide]",6.25
8,"CC(c1c[nH]c(=O)c2cc(F)c(F)cc12)N(C)C(=O)[C@H]1Cc2ccccc2N1 (single isomer, unassigned) [Compound 22]",5.43
9,"CC(c1c[nH]c(=O)c2cc(F)c(F)cc12)N(C)C(=O)[C@@H]1Cc2ccccc2CN1 (single isomer, unassigned) [Compound 19]",6.09
10,"CC(c1c[nH]c(=O)c2cc(F)c(F)cc12)N(C)C(=O)c1ccc(Cl)c(F)c1 (single isomer, unassigned) [Compound 122, 4-Chloro-N-(1-(6,7-difluoro-1-oxo-1,2-dihydroisoquinolin-4-yl)ethyl)-3-fluoro-N-methylbenzamide]",7.40
11,"CC(c1c[nH]c(=O)c2cc(F)c(F)cc12)N(C)C(=O)[C@H]1Cc2ccccc2CN1 (single isomer, unassigned) [Compound 33]",5.18
12,"CC(c1cn(C)c(=O)c2cc(F)c(F)cc12)N(C)C(=O)c1cc2cc(F)c(F)cc2[nH]1 (single isomer, unassigned) [Compound 174, N-(1-(6,7-difluoro-2-methyl-1-oxo-1,2-dihydroisoquinolin-4-yl)ethyl)-5,6-difluoro-N-methyl-1H-indole-2-carboxamide]",7.30
13,"CC(c1c[nH]c(=O)c2cc(F)c(F)cc12)N(C)C(=O)c1cc2c([nH]1)CCC2 (single isomer, unassigned) [Compound 48, N-(1-(6,7-Difluoro-1-oxo-1,2-dihydroisoquinolin-4-yl)ethyl)-N-methyl-1,4,5,6-tetrahydro cyclopenta[b]pyrrole-2-carboxamide]",6.82
14,"CC(c1c[nH]c(=O)c2cc(F)c(F)cc12)N(C)C(=O)c1cc2c([nH]1)CCC(F)(F)C2 (single isomer, unassigned) [Compound 89, N-(1-(6,7-Difluoro-1-oxo-1,2-dihydroisoquinolin-4-yl)ethyl)-5,5-difluoro-N-methyl-4,5,6,7-tetrahydro-1H-indole-2-carboxamide]",5.74
15,"COc1ncc(C(C)N(C)C(=O)c2cc3c(F)cccn3c2)c2cc(F)c(F)cc12 (single isomer, unassigned) [Compound 180, N-(1-(6,7-difluoro-1-methoxyisoquinolin-4-yl)ethyl)-8-fluoro-N-methylindolizine-2-carboxamide]",6.62
16,"CC(c1c[nH]c(=O)c2cc(F)c(F)cc12)N(C)C(=O)C1Cc2cc(F)ccc2N1 (stereo not shown) [Compound 63, N-(1-(6,7-Difluoro-1-oxo-1,2-dihydroisoquinolin-4-yl)ethyl)-5-fluoro-N-methylindoline-2-carboxamide]",5.28
17,"CC(c1c[nH]c(=O)c2cc(F)c(F)cc12)N(C)C(=O)c1cc2ccc(Cl)cn2c1 (single isomer, unassigned) [Compound 110, 6-Chloro-N-(1-(6,7-difluoro-1-oxo-1,2-dihydroisoquinolin-4-yl)ethyl)-N-methylindolizine-2-carboxamide]",7.40
18,"CC(c1c[nH]c(=O)c2c(F)c(F)ccc12)N(C)C(=O)C1Nc2ccccc2C1(C)C (stereo not shown) [Compound 106, N-(1-(7,8-Difluoro-1-oxo-1,2-dihydroisoquinolin-4-yl)ethyl)-N,3,3-trimethylindoline-2-carboxamide]",≤ 4.60
19,"CC(c1c[nH]c(=O)c2cc(F)c(F)cc12)N(C)C(=O)c1cc2ccccc2o1 (single isomer, unassigned) [Compound 25, N-(1-(6,7-Difluoro-1-oxo-1,2-dihydroisoquinolin-4-yl)ethyl)-N-methylbenzofuran-2-carboxamide]",4.77
20,"CC(c1cn(C)c(=O)c2cc(F)c(F)cc12)N(C)C(=O)c1ccc(Br)c(F)c1 (single isomer, unassigned) [Compound 162, 4-bromo-N-(1-(6,7-difluoro-2-methyl-1-oxo-1,2-dihydroisoquinolin-4-yl)ethyl)-3-fluoro-N-methylbenzamide]",7.52
21,"CC(c1c[nH]c(=O)c2cc(F)c(F)cc12)N(C)C(=O)c1cc2c(F)cccc2[nH]1 (single isomer, unassigned) [Compound 7, N-(1-(6,7-Difluoro-1-oxo-1,2-dihydroisoquinolin-4-yl)ethyl)-4-fluoro-N-methyl-1H-indole-2-carboxamide]",5.77
22,"CC(c1c[nH]c(=O)c2cc(F)c(F)cc12)N(C)C(=O)c1cc2c(Cl)cccn2c1 (single isomer, unassigned) [Compound 78, 8-Chloro-N-(1-(6,7-difluoro-1-oxo-1,2-dihydroisoquinolin-4-yl)ethyl)-N-methylindolizine-2-carboxamide]",8.00
23,"CC(c1c[nH]c(=O)c2cc(F)c(F)cc12)N(C)C(=O)c1cc2c(F)cccn2c1 (single isomer, unassigned) [Compound 79, N-(1-(6,7-Difluoro-1-oxo-1,2-dihydroisoquinolin-4-yl)ethyl)-8-fluoro-N-methylindolizine-2-carboxamide]",5.48
24,"CC(c1c[nH]c(=O)c2c(F)c(F)ccc12)N(C)C(=O)c1cc2c(Cl)cccn2c1 (single isomer, unassigned) [Compound 92, 8-Chloro-N-(1-(7,8-difluoro-1-oxo-1,2-dihydroisoquinolin-4-yl)ethyl)-N-methylindolizine-2-carboxamide]",5.57
25,"CC(c1c[nH]c(=O)c2cc(F)c(F)cc12)N(C)C(=O)c1nc2ccccc2[nH]1 (single isomer, unassigned) [Compound 23, N-(1-(6,7-Difluoro-1-oxo-1,2-dihydroisoquinolin-4-yl)ethyl)-N-methyl-1H-benzo[d]imidazole-2-carboxamide]",≤ 4.60

# Same assay, conditions: Hepatitis B virus, HepDE19, 168 h, HepDE19 cells, 7 day incubation, rcDNA measured by Quantigene 2.0 bDNA assay, top concentration 25 μM; read-out: DE-19bDNA EC50
row,SMILES,pEC50
1,"C[C@H](c1c[nH]c(=O)c2ccccc12)N(C)C(=O)c1cc2cc(F)c(F)cc2[nH]1 [Compound 159, (R)-5,6-Difluoro-N-methyl-N-(1-(1-oxo-1,2-dihydroisoquinolin-4-yl)ethyl)-1H-indole-2-carboxamide]",7.00
2,"C[C@H](c1c[nH]c(=O)c2ccccc12)N(C)C(=O)c1cc2c(F)cc(F)cc2[nH]1 [Compound 158, (R)-4,6-Difluoro-N-methyl-N-(1-(1-oxo-1,2-dihydroisoquinolin-4-yl)ethyl)-1H-indole-2-carboxamide]",6.89
3,"CC(c1c[nH]c(=O)c2cc(F)c(F)cc12)N(C)C(=O)c1cc2ccccn2c1 (single isomer, unassigned) [Compound 70, N-(1-(6,7-Difluoro-1-oxo-1,2-dihydroisoquinolin-4-yl)ethyl)-N-methylindolizine-2-carboxamide]",7.70
4,"CC(c1cn(C)c(=O)c2cc(F)c(F)cc12)N(C)C(=O)c1ccc(C(F)(F)F)c(F)c1 (single isomer, unassigned) [Compound 165, N-(1-(6,7-difluoro-2-methyl-1-oxo-1,2-dihydroisoquinolin-4-yl)ethyl)-3-fluoro-N-methyl-4-(trifluoromethyl)benzamide]",5.63

# Same assay, conditions: read-out: DE-19bDNA EC50; HepDE19 cells, 7 day incubation, rcDNA measured by Quantigene 2.0 bDNA assay, top concentration 25 μM
row,SMILES,pEC50
1,"CC(c1c[nH]c(=O)c2cc(F)c(F)cc12)N(C)C(=O)c1cc2cccnc2[nH]1 (single isomer, unassigned) [Compound 51, N-(1-(6,7-Difluoro-1-oxo-1,2-dihydroisoquinolin-4-yl)ethyl)-N-methyl-1H-pyrrolo[2,3-b]pyridine-2-carboxamide]",6.10
2,"CC(c1c[nH]c(=O)c2cc(F)c(F)cc12)N(C)C(=O)c1ccccc1 (single isomer, unassigned) [Compound 128, N-(1-(6,7-Difluoro-1-oxo-1,2-dihydroisoquinolin-4-yl)ethyl)-N-methylbenzamide]",< 4.60
